Measured values taken from patent publication US20020193564A1, “Oligomeric chaperone proteins” (priority 1999, published 2002).

Tests used:
bacteriophage T4 = assay: Growth of bacteriophage T4 in transformed groEL strains; assay type: cell-based, bacteriophage T4 (T4D0) in E. coli; design: key to Growth of bacteriophage T4, SV1 (groEL^+) / Growth of bacteriophage T4, SV2 groEL44 / Growth of bacteriophage T4, SV3 GroEL59 / Growth of bacteriophage T4, SV6 groEL673: +++: normal plaque-forming ability relative to wild-type groEL^+ strain, in terms of both number and size; ++: 5-fold fewer plaques relative to wild-type groEL^+ strain, or both; 10-fold fewer plaques, or plaque size reduced relative to wild-type groEL^+ strain, or both; +/−: 10^2-fold fewer plaques and plaque size reduced relative to wild-type groEL^+ strain; no visible plaques (<10^−4); conditions: 37° C.
Description: The E. Coli strains used in this study were: C41(DE3), a mutant of BL21(DE3) capable of expressing toxic genes (Miroux, B. & Walker, J. E. (1996) J. Mol. Biol. 260, 289-298); SV2 (B178groEL44), SV3 (B178groEL59) and SV6 (B178groEL673): isogenic strains carrying temperature-sensitive alleles of groEL; SV1(=B178) (Georgopoulos, C., Hendrix, R. W., Casjens, S. R. & Kaiser, A. D. (1973) J. Mol. Biol. 76, 45-60), A190 (ΔgroEL::kan^R) [pBAD-EL] (Ivic, A., Olden, D., Wallington, E. J. & Lund, P. A. (1997) Gene 194, 1-8), and TG1 (Gibson, T. J. (1984) Ph.D. thesis, University of Cambridge, U.K). Bacteriophage λb2cI (Zeilstra-Ryalls, J., Fayet, O., Baird, L. & Georgopoulos, C. (1993) J. Bacteriol. 175, 1134-1143) was used according to standard methods (Arber, W., Enquist, L., Hohn, B., Murray, N. E. & Murray, K. (1983) in Lambda II., ed. R. W. Hendrix, J. W. r., F. W. Stahl and R. A. Weisberg (Cold Spring Harbor Laboratory, Cold Spring Harbor, N.Y.), pp. 433-466); plaque formation was assayed at 30° C. T4D0, a derivative of bacteriophage T4 (Zeilstra-Ryalls, J., Fayet, O., Baird, L. & Georgopoulos, C. (1993) J. Bacteriol. 175, 1134-1143), was used according to standard methods (Karam, J. D. (1994) Molecular biology of bacteriophage T4. (American Society for Microbiology, Washington, D.C.)); plaque formation was assayed at 37° C.

[1] = test system: AI90 (ΔgroEL::kan^R) [pBADEL] E. coli strain; assay: Plating ability of AI90 on GroEL depletion at 37° C.; assay type: cell-based
Protocol: AI90 (ΔgroEL::kan^R) [pBAD-EL] cells were transformed with the pJC vector series. Transformants were selected at 37° C. on LB supplemented with 50 μg.ml^−1 of kanamycin, 120 μg.mL^−1 of ampicillin, 25 μg.mL^−1 of chloramphenicol and 0.2% L(+)arabinose. Depletion of GroEL protein was analysed at 37° C. by plating the same quantity of AI90 [PBAD-EL+pJC vectors] cells on LB plates containing 1% D(+)glucose or various amount of arabinose.
Each experiment was performed in triplicate. Plasmids carrying no groE genes or encoding the GroE proteins were used as negative or positive controls, respectively.

[2] = test system: mutant Huntingdon exon 1-expressing PC12 and SH-SY5Y cells; assay: Inclusion formation and cell death, mutant Huntingdon exon 1; assay type: cell-based; conditions: overexpression
Description: These phenomena have been studied by transiently transfecting part of Huntingdon exon 1 in COS-7, PC12, and SH-SY5Y cells. Inclusion formation was not seen with constructs expressing 23 glutamines but was repeat length and time dependent for mutant constructs with 43-74 repeats. HSP70, HSP40, the 20S proteasome and ubiquitin colocalized with inclusions. […] Thus, inclusion formation may be enhanced in polyglutamine diseases, if the pathological process results in proteasome inhibition or a heat-shock response. […] To our knowledge, this is the first report of an HSP increasing aggregation of an abnormally folded protein in mammalian cells and expands the current understanding of the roles of HDJ-2yHSDJ in protein folding (See Wyttenbach, A. et al. (2000) Proc. Natl. Acad. Sci. USA 97, 2899-2903).
We have tested MC72 in the same system.

Substance: GroEL(1-548): key molecular chaperone in Escherichia coli, 14 subunits of 57.5 kD in two seven membered rings
- Growth of bacteriophage T4, SV1 (groEL^+) (bacteriophage T4; SV1): +++
- Growth of bacteriophage T4, SV2 groEL44 (bacteriophage T4; SV2): +++
- Growth of bacteriophage T4, SV3 GroEL59 (bacteriophage T4; SV3): +++
- Growth of bacteriophage T4, SV6 groEL673 (bacteriophage T4; SV6): +++
- Plating ability, 0.00 % L(+)arabinose ([1]; 0.00% arabinose): +++ (growth identical to that in presence of 0.2% L(+)arabinose (100%), in terms of both number and size)
- Plating ability, 0.01 % L(+)arabinose ([1]; 0.01% arabinose): +++ (growth identical to that in presence of 0.2% L(+)arabinose (100%), in terms of both number and size)
- Plating ability, 0.10 % L(+)arabinose ([1]; 0.10% arabinose): +++ (growth identical to that in presence of 0.2% L(+)arabinose (100%), in terms of both number and size)
- Plating ability, 0.15 % L(+)arabinose ([1]; 0.15% arabinose): +++ (growth identical to that in presence of 0.2% L(+)arabinose (100%), in terms of both number and size)
- cell death [2]: no effect
- inclusion formation [2]: no effect
